The results in this text go back to US9926529B2, “Derivation of neural stem cells and dopaminergic neurons from human pluripotent stem cells” (International Stem Cell Corporation, priority 2012, dated 2018).

For assay [1], the system named is hPSC-NSC derived DA neurons. The assay can be described thus: FACS analysis of derived DA neurons stained for TH. It counts as cell-based, human. Particulars: after 30 days of differentiation with guggulsterone. On the procedure:
To obtain DA neurons, hPSC-NSC were first primed into DA precursors with 100 ng/mL FGF8 and 2 μM Purmorphamine for 7 days and then used to screen for small molecules that induce terminal dopaminergic differentiation (FIG. 6A). The DA precursors were plated at 2000 cells/well of a 96-well plate and treated with a small molecule library (Tocris 1120 biologically active compounds) at 2.5 μM for two weeks (FIG. 6A). Dopaminergic differentiation was assessed by neurite outgrowth and ELISA analysis for dopamine release (FIG. 6A). From this screen, guggulsterone (GS), a naturally occurring steroid, was identified among the best inducers of dopaminergic differentiation (FIG. 6A). After 30 days of differentiation, GS-treated neurons appeared mature with elaborate neurite extensions. […] Spontaneous action potentials were recorded in whole cultures of GS-treated neurons using a microelectrode array (MEA) system (FIG. 6J). […]
For flow cytometry analysis, 1 million cells per sample were harvested with Accutase, washed with PBS, and fixed with 4% paraformaldehyde for 30 min at room temperature. […] The samples were run on a Becton Dickinison FACSCalibur™ 4-color flow cytometer and the data was analyzed with CellQuest Pro™ software (v6.0). […]
A general note: Flow cytometry measures light scatter and fluorescence of single cells or particles in a stream.

In another assay the test system is hPSC-derived DA neurons. The assay can be described thus: Microelectrode array (MEA) recordings of GS-treated neurons. It counts as cell-based, human. The settings on record: day 95 of differentiation, 2.5 μM guggulsterone. On the procedure: Extracellular voltage recordings from cultured hPSC-derived DA neurons were made on day 95 of differentiation in NB medium [NeuroBasal medium, 1× GlutaMAX, 1× N2/B27 Supplement (Invitrogen)] supplemented with 2.5 μM guggulsterone at 37° C. using a Muse microelectrode array (MEA) system (Axion Biosystems). The surface of the MEA dishes contained an 8×8 grid (64 electrodes total) of 30 μm diameter round extracellular electrodes composed of nanoporous platinum, with 200 μm inter-polar spacing.
MEA dishes were sterilized by rinsing 3 times in sterile deionized water, once in 70% ethanol and once in 100% ethanol. Dishes were then capped and inverted in a covered petri dish, and baked at 50° C. for 4-5 hr. A polyethyleneimine (PEI) base coating was deposited by adding […] of filtered (0.22 μm filter) 0.1% PEI in sodium borate buffer (15 mM; pH 8.4) to each dish and incubating at room temperature for 1 hr. Immediately following aspiration of the PEI solution, dishes were washed 4× with 1 ml deionized water, and air-dried overnight in a tissue culture hood. […]
Voltage data were sampled simultaneously on all electrodes at 12.5 kHz with a hardware filter bandwidth of 200-5000 Hz, and saved to computer with AxIS software (Axion Biosystems). […] For spike raster plots and inter-spike interval histograms, time-stamps of detected spikes were exported to Neuroexplorer (NEX Technologies). […]

With `C/C=C1\C(=O)C[C@H]2[C@@H]3CCC4=CC(=O)CC[C@]4(C)[C@H]3CC[C@]12C` [Guggulsterone], in assay [1], the “cells gated TH positive (FACS)” value is listed as “more than 97%”. Moreover, in the assay with hPSC-derived DA neurons, the “fraction of the 64 total MEA electrodes showing moderate activity (>5 spikes/min)” value is listed as “Approximately one third”.
